# Test results reported in publication PMC10722499, “Consumption of Roasted Coffee Leads to Conjugated Metabolites of Atractyligenin in Human Plasma” (Journal of Agricultural and Food Chemistry, 2023).
# Read-outs that look alike come from different tables or passages of the source.
# Assay: Human coffee intervention study: plasma concentrations after roasted coffee brew by UPLC-MS/MS
# Type: in vivo
# Settings: for samples above the LLOQ: n = 10; for concentration at 1 h / concentration at 4 h / concentration at 10 h: human, plasma
# Method: The study included ten volunteers (5 females, 5 males) (age: 28.3 ± 2.3 years; BMI: 21.89 ± 2.22 kg/m^2). The intervention study took place from November 5, 2021, to February 17, 2022, in the core facility human studies of the ZIEL Institute for Food and Health of the Technical University of Munich. The study was performed in agreement with the Declaration of Helsinki, and all participants gave written informed consent. The study was approved by the Ethics Committee of the Technical University of Munich (5798/13 S-SR) and registered in the German Register of Clinical Studies (DRKS00005083).
# The study participants underwent a dietary protocol that excluded all forms of coffee consumption. Additionally, chocolate, black/green/white, mate tea, cola, energy drinks, and beauty products containing caffeine (e.g., shampoos, creams) were prohibited 1 week before the test day. Furthermore, the study participants received a standardized meal the evening before the test day. The meal was composed of pasta, margarine, and salt, and the amount of energy was calculated based on the participant’s basal energy demand. On the morning of the test day, the participants were in a fastened state and received water (control samples) or coffee brew (coffee intervention) as breakfast. Blood was sampled before coffee intake (0 h) and at defined time points (1, 4, and 10 h) after coffee intake. 6 h after the coffee intake, the participants received lunch, the same standardized meal as the previous dinner. The administered coffee was prepared from a coffee capsule (Nespresso, ROMA) with 100 mL water. The administered volume of the coffee brew was 200 mL. Based on the coffee powder per capsule ([…]), the concentrations of 2 (2.8 μmol/g) and 3 (1.1 μmol/g), respectively,[10] and an estimated extraction rate of 100%, the total ingested amounts were 33.6 μmol (2) and 13.2 μmol (3).
# In an Eppendorf tube (1.5 mL), aliquots (50 μL each) of the calibration standard, sample, or QC, respectively, were mixed with the IS solution (1000 nM in ethanol, 50 μL) and acetonitrile/ethanol (9 + 1, v + v, 50 μL) was added. After vortexing, suspensions were cleared by centrifugation (12,000 rpm, 4 °C, 10 min), and the supernatant (∼100 μL) was transferred to an HPLC vial with 200 μL insert for analysis (5 μL injection).
# The UPLC–MS/MS system consisted of a Shimadzu Nexera X2 UPLC system (Shimadzu, Duisburg, Germany) hyphenated to a QTrap 5500 MS/MS system (Sciex, Darmstadt, Germany) operating in negative electrospray (ESI^–) mode with the following ion source parameters: ion spray voltage: −4500 V; source temperature: 500 °C; nebulizer gas: 55 psi; heater gas: 65 psi; and curtain gas: 35 psi. The MS/MS parameters, including the collision cell entrance potential (CEP), declustering potential (DP), collision energy (CE), and cell exit potential (CXP), were tuned for each compound and mass transition and are summarized in Supporting Table S3. The dwell time for each compound was 30 ms, and the total cycle time was 0.75 s. Chromatographic separation was achieved on a C18 column (Kinetex C18, 100 mm × 2.1 mm, 1.7 μm, Phenomenex, Aschaffenburg, Germany) at a flow rate of 500 μL/min flow rate. Eluent A was 0.1% formic acid in water, and eluent B was 0.1% formic acid in acetonitrile. B was kept at 3% (1 min), increased to 25% (in 3 min), 90% (in 2 min, 1 min isocratic), and 3% (0.5 min, 2.5 min isocratic). The total time of the analysis was 10 min. The column effluent was introduced from the waste to the MS/MS system between 3 and 7 min.
# We applied this method to human plasma samples from a coffee intervention study to investigate the appearance of coffee compounds 1–3 and metabolites M1–M3. Ten participants underwent a washout period (7 days) and then consumed one dose of […]. Blood samples were taken at baseline (0 h) and 1, 4, and 10 h after the intervention. […]
compound,measurement,setting,value
"C=C1C2CCC3C4(C)CC(O)CC(C(=O)OC5OC(C(=O)O)C(O)C(O)C5O)C4CCC3(C2)C1O [M1, atractyligenin-19-O-β-D-glucuronide]",plasma level at baseline,"0 h, before coffee intake, human plasma",no peaks were detected
same,"plasma concentration, mean ± SD","4 h after coffee brew (200 mL), human plasma, values above LLOQ",11.7 ± 10.7 nM
same,samples above the LLOQ,4 h after coffee,80%
same,"plasma concentration, mean ± SD","10 h after coffee brew (200 mL), human plasma, values above LLOQ",13.1 ± 5.8 nM
same,samples above the LLOQ,10 h after coffee,90%
same,concentration at 1 h,"both sexes, oral, 200 mL, 1 h after coffee brew (200 mL), human plasma, values above LLOQ, read-out: plasma concentration, mean ± SD",25.1 ± 4.9 nM
same,concentration at 4 h,"both sexes, oral, 200 mL, 4 h after coffee brew (200 mL), human plasma, values above LLOQ, read-out: plasma concentration, mean ± SD",14.2 ± 10.5 nM
same,concentration at 10 h,"both sexes, oral, 200 mL, 10 h after coffee brew (200 mL), human plasma, values above LLOQ, read-out: plasma concentration, mean ± SD",14.4 ± 4.4 nM
same,Cmax,"both sexes, oral, human plasma after coffee brew (200 mL), n = 10, mean ± SD, read-out: estimated cmax in plasma",25.1 ± 4.9 nM
same,time of estimated cmax,"human plasma after coffee brew (200 mL), sampling only at 0, 1, 4, 10 h",1 h
same,concentration at 4 h,"oral, 200 mL coffee brew, participant xrwz, 4 h after coffee, b = below LLOQ, read-out: plasma concentration, individual",1.7 nM
same,concentration at 1 h,"oral, 200 mL, participant ayia, 1 h after coffee, read-out: plasma concentration, individual",16.4 nM
same,concentration at 4 h,"oral, 200 mL, participant ayia, 4 h after coffee, b = below LLOQ, read-out: plasma concentration, individual",1.7 nM
same,concentration at 10 h,"oral, 200 mL, participant ayia, 10 h after coffee, read-out: plasma concentration, individual",17.2 nM
same,concentration at 1 h,"oral, 200 mL, participant cbdu, 1 h after coffee, b = below LLOQ, read-out: plasma concentration, individual",24.6 nM
same,concentration at 4 h,"oral, 200 mL, participant cbdu, 4 h after coffee, read-out: plasma concentration, individual",2.9 nM
same,concentration at 10 h,"oral, 200 mL, participant cbdu, 10 h after coffee, read-out: plasma concentration, individual",17.8 nM
same,concentration at 1 h,"oral, 200 mL, participant eogo, 1 h after coffee, b = below LLOQ, read-out: plasma concentration, individual",30 nM
same,concentration at 4 h,"oral, 200 mL, participant eogo, 4 h after coffee, b = below LLOQ, read-out: plasma concentration, individual",4.6 nM
same,concentration at 10 h,"oral, 200 mL, participant eogo, 10 h after coffee, b = below LLOQ, read-out: plasma concentration, individual",12.3 nM
same,concentration at 1 h,"oral, 200 mL, participant ggot, 1 h after coffee, read-out: plasma concentration, individual",32.2 nM
same,concentration at 4 h,"oral, 200 mL, participant ggot, 4 h after coffee, b = below LLOQ, read-out: plasma concentration, individual",9.7 nM
same,concentration at 10 h,"oral, 200 mL, participant ggot, 10 h after coffee, b = below LLOQ, read-out: plasma concentration, individual",1.7 nM
same,concentration at 1 h,"oral, 200 mL, participant imhz, 1 h after coffee, read-out: plasma concentration, individual",30.6 nM
same,concentration at 4 h,"oral, 200 mL, participant imhz, 4 h after coffee, read-out: plasma concentration, individual",10.5 nM
same,concentration at 10 h,"oral, 200 mL, participant imhz, 10 h after coffee, read-out: plasma concentration, individual",21.5 nM
same,concentration at 1 h,"oral, 200 mL, participant mgjj, 1 h after coffee, read-out: plasma concentration, individual",23.6 nM
same,concentration at 4 h,"oral, 200 mL, participant mgjj, 4 h after coffee, read-out: plasma concentration, individual",12.4 nM
same,concentration at 10 h,"oral, 200 mL, participant mgjj, 10 h after coffee, read-out: plasma concentration, individual",17.5 nM
same,concentration at 1 h,"oral, 200 mL, participant rrmk, 1 h after coffee, read-out: plasma concentration, individual",22 nM
same,concentration at 4 h,"oral, 200 mL, participant rrmk, 4 h after coffee, b = below LLOQ, read-out: plasma concentration, individual",19.7 nM
same,concentration at 10 h,"oral, 200 mL, participant rrmk, 10 h after coffee, read-out: plasma concentration, individual",14.4 nM
same,concentration at 1 h,"oral, 200 mL, participant wbqj, 1 h after coffee, b = below LLOQ, read-out: plasma concentration, individual",27.5 nM
same,concentration at 4 h,"oral, 200 mL, participant wbqj, 4 h after coffee, b = below LLOQ, read-out: plasma concentration, individual",36 nM
same,concentration at 10 h,"oral, 200 mL, participant wbqj, 10 h after coffee, b = below LLOQ, read-out: plasma concentration, individual",8.5 nM
same,concentration at 1 h,"oral, 200 mL, participant wbvs, 1 h after coffee, read-out: plasma concentration, individual",23.8 nM
same,concentration at 4 h,"oral, 200 mL, participant wbvs, 4 h after coffee, read-out: plasma concentration, individual",17.8 nM
same,concentration at 10 h,"oral, 200 mL, participant wbvs, 10 h after coffee, read-out: plasma concentration, individual",9.7 nM
same,concentration at 1 h,"oral, 200 mL, participant xrwz, 1 h after coffee, read-out: plasma concentration, individual",20.2 nM
same,concentration at 10 h,"oral, 200 mL, participant xrwz, 10 h after coffee, b = below LLOQ, read-out: plasma concentration, individual",10.5 nM
same,participants in whom plasma concentration increased between 4 and 10 h,"individual plots, after first maximum at 1 h",60%
